Results reported in patent US10076533B2, “Acyclic nucleoside phosphonate diesters” (The Regents of the University of California, priority 2013, dated 2018).
Read-outs that look alike come from different tables or passages of the source.

Key:
MT-2 cells = experiment: Cytotoxicity in MT-2 cells, flow cytometry cell counts and viability; format: cell-based, human
Description: (§1) MT-2 cells were incubated with drug for 72 hrs and harvested. Flow count beads (Beckman Coulter, Miami, Fla.) were added to the cell suspension followed by propidium iodide staining and analysis using flow cytometer and the 50% cytotoxic concentration (CC50) was calculated from the cell counts and viability.

[1] = system: Copenhagen strain of vaccinia virus; experiment: microbe, parasite or virus in culture; format: cell-based; settings: HFF cells infected with vaccinia virus (Copenhagen), 7 days, crystal violet; read-out: EC50
HPV-11 = HPV-11 origin replication in HEK 293 cells, qPCR; format: cell-based; settings: for EC50: HPV-11 origin replication in HEK 293 cells, 48 hr, qPCR
Description: (§2) An origin-containing plasmid was co-transfected with HPV-11 E1 and E2 protein expression vectors into HEK 293 cells. At 4 hr post-transfection, cells were treated with compound dilutions and the cells were incubated for 48 hr. Replication of the virus origin was detected with DpnI and exonuclease III to remove unreplicated input bacterial plasmid DNA. Remaining replicated DNA was quantified by qPCR. Toxicity was determined by trypan blue exclusion.

HEK 293 cells = experiment: Toxicity in HEK 293 cells by trypan blue exclusion (HPV-11 example); format: cell-based
Description: as §2

[2] = system: human foreskin fibroblast (HFF) cells
[3] = system: Human peripheral blood monocyte (PBMC); experiment: Viability of PBMC by XTT reduction; settings: human PBMC, XTT reduction
HIV-1LAI = experiment: HIV antiviral assay in MT-2 cells, p24 reduction; settings: for Selectivity Index: CC50/EC50, MT-2 cells
[4] = system: human foreskin fibroblast (HFF) cells; experiment: Cytotoxicity in HFF cells in parallel to HSV-2 assay; settings: HFF cells
[5] = system: human foreskin fibroblast (HFF) cells; experiment: Cytotoxicity in HFF cells in parallel to HSV-1 assay; settings: HFF cells, in parallel to HSV-1 assay
COS7 cells = settings: uninfected COS7 cells, […]
[6] = system: human foreskin fibroblast (HFF) cells; experiment: Cytotoxicity in HFF cells in parallel to cytomegalovirus assay; settings: HFF cells, in parallel to cytomegalovirus assay
MAD-1 strain of JC virus = experiment: Antiviral effect in JC virus (MAD-1) infected COS7 cells, qPCR
[7] = system: human foreskin fibroblast (HFF) cells; settings: uninfected HFF cells, […]
HIV-192US727 = experiment: Anti-HIV assay in human PBMC, supernatant reverse transcriptase activity
[8] = system: AD169 strain of human cytomegalovirus; experiment: Antiviral effect in HFF cells infected with human cytomegalovirus (AD169)
[9] = system: BK virus (Gardner strain); experiment: Antiviral effect in HFF cells infected with BK virus (Gardner strain), qPCR
2.2.15 cells = experiment: Cytotoxicity in 2.2.15 cells by neutral red uptake; settings: 2.2.15 cells, neutral red uptake
Hepatitis B virus = experiment: HBV replication in 2.2.15 cells, HBV DNA blot hybridization
[10] = Cytotoxicity in MT-2 cells, flow cytometry cell counts and viability; format: cell-based, human; settings: human; MT-2 cells, 72 hrs
Description: as §1

[11] = Effect of oral compounds on body weight in Balb-c mice; format: in vivo
Description: Compounds were administered at the indicated doses by oral gavage daily for 5 days. Weights measured before and on day 6 after 5 doses.

[12] = Toxicity in HEK 293 cells by trypan blue exclusion (HPV-11 example); format: cell-based; settings: human
Description: as §2

HPV-16 = HPV-16 origin replication in HEK 293 cells, qPCR; format: cell-based
Description: as §2, with “HPV-16” for “HPV-11”

[13] = Toxicity in HEK 293 cells by trypan blue exclusion (HPV-16 example); format: cell-based; settings: human
Description: as §2, with “HPV-16” for “HPV-11”

in vitro = settings: human
[14] = Cytotoxicity in 2.2.15 cells by neutral red uptake; settings: human
[15] = Cytotoxicity in HFF cells in parallel to HSV-1 assay; settings: human
[16] = African green monkey
[17] = Cytotoxicity in HFF cells in parallel to cytomegalovirus assay; settings: human
[18] = Antiproliferative activity, neutral red, normal human fibroblasts
[19] = Toxicity in primary human keratinocyte raft cultures by histology
Hela (HPV-18) = experiment: Antiproliferative activity, neutral red, Hela cervical cancer cells; settings: Homo sapiens, 96 h, read-out: Cytotoxic concentration 50% (CC50) Hela (HPV-18)
Caski (HPV-16) = experiment: Antiproliferative activity, neutral red, Caski cervical cancer cells
[20] = human
HPV-18 = experiment: Antiviral effect in HPV-18 infected primary human keratinocyte rafts, qPCR
[21] = system: Human peripheral blood monocyte (PBMC)
[22] = MT-2 cells, 72 hrs, read-out: CC50
[23] = HIV-1 infected MT-2 cells, p24 reduction, four days
[24] = COS7 cells infected with JC virus (MAD-1), 7 days, qPCR
[25] = HIV-192US727 infected human PBMC, 7 days, supernatant reverse transcriptase activity
[26] = HFF cells infected with human cytomegalovirus (AD169), 14 days, crystal violet
[27] = HFF cells infected with BK virus (Gardner strain), 14 days, qPCR

Which CC50 (MT-2 cells; [22]) does the source give for `CCCCCCCCCCCCCCCCCCOC[C@H](COP(=O)(CO[C@H](CO)Cn1ccc(N)nc1=O)OCc1ccccc1)OCc1ccccc1` (stereo partly drawn) [Compound 231, benzyl 1-O-octadecyl-2-O-benzyl-sn-glyceryl 1-(S)-[3-hydroxy-2-(phosphonomethoxy)propyl]cytosine] here?
Its CC50 is 22 ± 3 µM.

What about the EC50 [1] of the same compound?
The EC50 was 0.23 µM.

What about the EC50 (HPV-11) of the same compound?
The EC50 was 1.56 µM.

What about the CC50 (HEK 293 cells) of the same compound?
The CC50 was greater than 10 µM.

And the CC50 [2]?
Its CC50 is greater than 100 µM.

What about the CC50 [3] of the same compound?
Its CC50 is 19 µM.

What about the “Selectivity Index” value (HIV-1LAI) of the same compound?
The value was 10.

And the EC50 (HIV-1LAI; [23])?
The EC50 was 2200 ± 2100 nM.

And the CC50 [4]?
The CC50 was 34.8 µM.

What about the CC50 [5] of the same compound?
The CC50 was 88.3 µM.

What about the CC50 (COS7 cells) of the same compound?
Its CC50 is 62.6 µM.

And the CC50 [6]?
Its CC50 is 19 µM.

And the EC50 (MAD-1 strain of JC virus; [24])?
The EC50 was greater than 20 µM.

What about the CC50 [7] of the same compound?
Its CC50 is 13.3 µM.

What about the EC50 (HIV-192US727; [25]) of the same compound?
The EC50 was less than 0.3 µM.

And the EC50 [8, 26]?
Its EC50 is less than 0.03 µM.

What about the EC50 [9, 27] of the same compound?
Its EC50 is less than 0.03 µM.

With `CCCCCCCCCCCCCCCCCCOCCOP(=O)(CO[C@H](C)Cn1cnc2c(N)ncnc21)Oc1ccccc1` (stereo partly drawn) [Compound 92, phenyl octadecyloxyethyl 9-(R)-[(2-phosphonomethoxy)propyl]adenine] as the compound, how does the CC50 [3] read?
Its CC50 is 24.1 µM.

What about the CC50 (2.2.15 cells) of the same compound?
Its CC50 is 68 µM.

What about the EC50 (Hepatitis B virus; HBV replication in 2.2.15 cells, 7 days treatment, HBV DNA blot hybridization) of the same compound?
Its EC50 is 7.3 µM.

What about the EC50 (HIV-192US727; [25]) of the same compound?
Its EC50 is less than 0.005 µM.

Which CC50 at 72 h [10] does the source give for `CCCCCCCCCCCCCCCCCCOCCOP(=O)(COCCn1cnc2c(=O)[nH]c(N)nc21)OCc1ccccc1` (racemic) [Compound 1, benzyl octadecyloxyethyl 9-(2-phosphonomethoxyethyl)guanine] here?
The CC50 at 72 h was 0.036 ± 0.04 µM.

And the CC50 (MT-2 cells; Homo sapiens, MT2, 72 h, read-out: CC50, 50% Cytotoxic concentration MT2 cells T cell leukemia)?
Its CC50 is 0.036 ± 0.04 µM.

What about the “body weight Day 6” value ([11]; 4 mg/kg/day oral gavage daily for 5 days) of the same compound?
The value was 18.42 ± 1.00 (3).

And the “body weight Day 0” value ([11]; 4 mg/kg/day oral gavage, before dosing)?
Its value is 18.63 ± 0.728 (3).

What about the EC50 (HPV-11; HEK293) of the same compound?
The EC50 was 0.49 µM.

What about the “Selectivity Index” value (HPV-11; HPV-11, HEK 293 cells) of the same compound?
Its value is greater than 204.

And the CC50 at 48 h [12]?
Its CC50 at 48 h is greater than 100 µM.

And the EC50 (HPV-16; HEK293, HPV-16 origin replication in HEK 293 cells, 48 hr, qPCR, read-out: EC50)?
The EC50 was 0.2 µM.

What about the “Selectivity Index” value (HPV-16; HPV-16, HEK 293 cells) of the same compound?
The value was greater than 50.

What about the CC50 [13] of the same compound?
Its CC50 is greater than 10 µM.

What about the CC50 (in vitro) of the same compound?
Its CC50 is 0.04 µM.

What about the “Selectivity Index” value (HIV-1LAI) of the same compound?
The value was greater than 3600.

And the EC50 (HIV-1LAI; Human immunodeficiency virus 1, MT2, 96 h)?
Its EC50 is less than 0.01 nM.

What about the CC50 at 7 days [14] of the same compound?
Its CC50 at 7 days is greater than 100 µM.

What about the CC50 at 3 days [15] of the same compound?
Its CC50 at 3 days is greater than 100 µM.

And the CC50 at 7 days [16]?
The CC50 at 7 days was 63.8 µM.

And the EC50 (Hepatitis B virus; Hepatitis B virus, 168 h)?
Its EC50 is 0.44 µM.

And the “Selectivity Index” value (Hepatitis B virus; hepatitis B virus, 2.2.15 cells)?
Its value is greater than 226.

What about the CC50 at 14 days [17] of the same compound?
Its CC50 at 14 days is 51.5 µM.

What about the EC50 (MAD-1 strain of JC virus; JC polyomavirus, COS-7, 168 h) of the same compound?
The EC50 was 0.07 µM.

And the “Selectivity Index” value (MAD-1 strain of JC virus; JC virus (MAD-1), COS7 cells)?
Its value is 911.

And the CC50 at 4 days [18]?
Its CC50 at 4 days is 15 µM.

And the CC50 [19]?
The CC50 was 10 µM.

What about the CC50 (Hela (HPV-18)) of the same compound?
The CC50 was 0.009 µM.

What about the CC50 (Caski (HPV-16); Homo sapiens, Ca-Ski, 96 h, read-out: Cytotoxic concentration 50% (CC50) Caski (HPV-16)) of the same compound?
The CC50 was 0.004 µM.

And the “fold more effective in reducing viable cell number in the cervical cancer lines than in normal, non-transformed human fibroblasts” value (Caski (HPV-16); cervical cancer lines (Caski, Hela) vs HFF)?
The value was 3,750 fold.

What about the CC50 at 14 days [20] of the same compound?
Its CC50 at 14 days is 3.06 µM.

What about the “Selectivity Index” value (HIV-192US727; HIV-192US727, human PBMC) of the same compound?
Its value is greater than 4.0.

What about the EC50 (HIV-192US727; Human immunodeficiency virus 1, PBMC, 168 h) of the same compound?
The EC50 was less than 0.01 µM.

And the EC50 ([8]; Human betaherpesvirus 5, AD169, HFF, 336 h)?
Its EC50 is less than 0.03 µM.

What about the “Selectivity Index” value ([8]; human cytomegalovirus (AD169), HFF cells) of the same compound?
Its value is greater than 1717.

And the “Selectivity Index” value (HPV-18; HPV-18 keratinocyte rafts)?
The value was 48.

And the EC50 (HPV-18; Homo sapiens, Keratinocyte)?
The EC50 was 0.21 µM.

What about the “Selectivity Index” value ([9]; BK virus (Gardner strain), HFF cells) of the same compound?
The value was greater than 102.

And the EC50 ([9]; Betapolyomavirus hominis, HFF, 336 h)?
Its EC50 is less than 0.03 µM.

For `CCCCCCCCCCCCCCCCCCOC[C@H](COP(=O)(CO[C@H](CO)Cn1cnc2c(N)ncnc21)OCc1ccccc1)OCc1ccccc1` (stereo partly drawn) [Compound 230, benzyl 1-O-octadecyl-2-O-benzyl-sn-glyceryl 9-(S)-[(3-hydroxypropyl-2-phosphonomethoxy)propyl]adenine], which CC50 (MT-2 cells; [22]) is on record?
The CC50 was 19 ± 2.6 µM.

What about the EC50 [1] of the same compound?
The EC50 was 0.06 µM.

And the EC50 (HPV-11)?
Its EC50 is 0.56 µM.

And the CC50 (HEK 293 cells)?
Its CC50 is greater than 10 µM.

What about the CC50 [2] of the same compound?
Its CC50 is 97.5 µM.

What about the CC50 [21] of the same compound?
The CC50 was 0.55 µM.

What about the “Selectivity Index” value (HIV-1LAI) of the same compound?
The value was 380.

What about the EC50 (HIV-1LAI; [23]) of the same compound?
The EC50 was 50 ± 30 nM.

And the CC50 [4]?
Its CC50 is 37.1 µM.

And the CC50 [5]?
Its CC50 is 82.2 µM.

And the CC50 (COS7 cells)?
Its CC50 is 18.4 µM.

What about the CC50 [6] of the same compound?
The CC50 was 3.72 µM.

And the EC50 (MAD-1 strain of JC virus; [24])?
The EC50 was greater than 4 µM.

And the CC50 [7]?
Its CC50 is 19.6 µM.

What about the EC50 (HIV-192US727) of the same compound?
The EC50 was less than 0.1 µM.

What about the EC50 [8, 26] of the same compound?
Its EC50 is less than 0.03 µM.

And the EC50 [9, 27]?
The EC50 was 0.06 µM.
